Measurements: paper PMC6711789 (Bioorganic & medicinal chemistry letters, 2019)
Marks after values point to notes of the source that are not given here.

Tests used:
[1] = tested on: S. aureus ATCC 8235-4 (MSSA); assay: Broth microdilution MIC against S. aureus ATCC 8235-4; type: cell-based; conditions: lowest concentration preventing visible growth
[2] = tested on: CYP1A2, 2C9, 2C19, 2D6, 3A4; assay: CYP inhibition; type: in vitro ADME; conditions: measured against CYP1A2, 2C9, 2C19, 2D6, 3A4
[3] = tested on: COXI and SDH-A mitochondrial proteins; type: cell-based; conditions: read-out: Mt protein synthesis inhibition IC50
[4] = Cytotoxicity against HepG2 cells using CellTiter Glo; type: cell-based; conditions: human

Row | SMILES | MIC [1] | CYP inhibition [2] [µM] | IC50 [3] [µM] | EC50 [4] [µM]
1 | CC(=O)NC[C@H]1CN(c2ccc(N3CCOC(C)(CCN(C)C)C3)c(F)c2)C(=O)O1 (stereo partly drawn) [Compound 23] | > 32^b μg/mL | – | – | –
2 | CC(=O)NC[C@H]1CN(c2ccc(N3CCOC4(CCCNC4)C3)c(F)c2)C(=O)O1 (stereo partly drawn) [Compound 25] | > 32^b μg/mL | – | – | –
3 | CC(=O)NC[C@H]1CN(c2ccc(N3CCOC4(CCN(C)C4)C3)c(F)c2)C(=O)O1 (stereo partly drawn) [Compound 17] | > 32^b μg/mL | – | – | –
4 | CC(=O)NC[C@H]1CN(c2ccc(N3CCOCC3)c(F)c2)C(=O)O1 [Linezolid, linezolid, reference compound] | – | >100 | – | > 30
5 | CC(=O)NC[C@H]1CN(c2ccc(N3CCOC4(CCNC4)C3)c(F)c2)C(=O)O1 (stereo partly drawn) [Compound 27] | > 32^b μg/mL | – | – | –

More lines, main results first:

Row | MIC [1] | CYP inhibition [2] [µM] | IC50 [3] [µM] | SMILES | EC50 [4] [µM]
6 | – | >100 | > 30 | CC(=O)NC[C@H]1CN(c2ccc(N3CCO[C@]4(CCCOC4)C3)c(F)c2)C(=O)O1 [Compound 19b] | > 30
7 | – | > 100 | 30 | CC(=O)NC[C@H]1CN(c2ccc(N3CCO[C@@]4(CCCOC4)C3)c(F)c2)C(=O)O1 [Compound 19a] | > 30
